In patent US20260152498A1, “4,5,6,7-TETRAHYDRO-1H-PYRAZOLO[4,3-c]PYRIDINE COMPOUNDS AND DERIVATIVES AS USP1 INHIBITORS” (EXELIXIS, INC., priority 2022, published 2026):

Tests used:
[1] = molecular target: T1, USP1-UAF1 complex (Homo sapiens, UniProt O94782); experiment: biochemical
Protocol: (§1) Biochemical Assay: The compounds were evaluated for their potential to inhibit USP1-UAF1 complex (Boston Biochem, Catalog: E568-050) using a fluorescence-based assay. The final concentrations of USP1-UAF1 complex protein and substrate Ubiquitin-Rhodamine-110 (R&D systems, Catalog U-555-050) used in the assay were 0.45 and 150 nM respectively. 50 mM HEPES pH. 7.5, 100 mM NaCl, 0.5 mM EDTA, 1 mM TCEP, 10% BSA, 0.01% Tween 20 buffer was used in the assay. The total assay volume was 20 μL. […] The final DMSO concentration in the assay was 1%. The compounds were pre-incubated with USP1-UAF1 complex at 25° C. for 15 min. After preincubation, required concentration of substrate was added and incubated at 25° C. for 60 min. Fluorescence at Excitation: 485 nm, Emission: 535 nm was measured in Victor-5 from Perkin Elmer.
(§2) To determine IC50 values, dose response curves were generated by plotting percentage inhibition as a function of inhibitor concentration and the data was fitted to sigmoidal non-linear regression equation (variable slope) using Graph Pad prism software V8.
(§3) The compounds were screened by the above-mentioned assay procedure.

[2] = molecular target: T1, USP1-UAF1 complex; conditions: 1.2 µM
Protocol: as §1, §2, §3

T1 sequence (O94782 whole entry): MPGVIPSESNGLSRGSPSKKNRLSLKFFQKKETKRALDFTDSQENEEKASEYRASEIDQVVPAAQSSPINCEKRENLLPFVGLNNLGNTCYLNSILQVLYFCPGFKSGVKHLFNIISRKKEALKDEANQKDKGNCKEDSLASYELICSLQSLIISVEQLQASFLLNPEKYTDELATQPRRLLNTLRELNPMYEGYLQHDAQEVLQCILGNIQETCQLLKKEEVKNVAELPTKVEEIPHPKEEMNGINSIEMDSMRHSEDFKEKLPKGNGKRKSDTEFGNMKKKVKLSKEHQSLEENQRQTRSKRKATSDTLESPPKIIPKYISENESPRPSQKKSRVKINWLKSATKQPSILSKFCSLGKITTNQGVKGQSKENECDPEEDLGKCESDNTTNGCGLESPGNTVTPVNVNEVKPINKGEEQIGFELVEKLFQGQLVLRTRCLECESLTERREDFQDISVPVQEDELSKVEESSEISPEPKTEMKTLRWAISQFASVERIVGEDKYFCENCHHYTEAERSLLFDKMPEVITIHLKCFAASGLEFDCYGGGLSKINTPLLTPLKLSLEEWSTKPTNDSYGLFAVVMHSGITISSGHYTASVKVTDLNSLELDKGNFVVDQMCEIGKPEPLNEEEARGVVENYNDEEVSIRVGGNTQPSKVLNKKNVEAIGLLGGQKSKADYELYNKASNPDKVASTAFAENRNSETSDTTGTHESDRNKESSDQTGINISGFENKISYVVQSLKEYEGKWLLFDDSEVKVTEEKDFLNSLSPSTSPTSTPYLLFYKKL
T1 sequence (Q8TAF3 whole entry partner): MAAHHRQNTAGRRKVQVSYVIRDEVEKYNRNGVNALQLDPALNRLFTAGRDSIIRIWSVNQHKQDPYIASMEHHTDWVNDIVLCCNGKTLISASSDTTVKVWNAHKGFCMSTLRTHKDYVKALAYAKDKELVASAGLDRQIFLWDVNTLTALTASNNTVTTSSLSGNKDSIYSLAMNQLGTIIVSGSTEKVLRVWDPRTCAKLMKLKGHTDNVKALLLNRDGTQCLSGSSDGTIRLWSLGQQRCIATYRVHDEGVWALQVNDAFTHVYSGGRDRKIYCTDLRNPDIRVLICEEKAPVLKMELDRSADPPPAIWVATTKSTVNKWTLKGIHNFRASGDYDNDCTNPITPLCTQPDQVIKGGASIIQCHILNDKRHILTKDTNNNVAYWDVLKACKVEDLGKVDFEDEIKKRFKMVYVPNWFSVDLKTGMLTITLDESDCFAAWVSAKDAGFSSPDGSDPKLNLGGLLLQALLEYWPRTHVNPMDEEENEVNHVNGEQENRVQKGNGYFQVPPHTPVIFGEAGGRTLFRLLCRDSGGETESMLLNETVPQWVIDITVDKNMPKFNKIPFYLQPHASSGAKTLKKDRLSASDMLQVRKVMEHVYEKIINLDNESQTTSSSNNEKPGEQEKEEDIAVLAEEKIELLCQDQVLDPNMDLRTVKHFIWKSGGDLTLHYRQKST

Compound | IC50 [1] [nM] | inhibition [2] [%]
COc1ncnc(C2CC2)c1-c1nn(C)c2c1CN(c1csc(-c3nc(C(F)(F)F)cn3C)c1)CC2 [Compound 49, 3-(4-cyclopropyl-6-methoxypyrimidin-5-yl)-1-methyl-5-(5-(1-methyl-4-(trifluoromethyl)-1H-imidazol-2-yl)thiophen-3-yl)-4,5,6,7-tetrahydro-1H-pyrazolo[4,3-c]pyridine] | > 100 | 14
COc1ncnc(C2CC2)c1-c1nn(C)c2c1CN(c1csc(-c3nc(C(F)(F)F)cn3C)n1)CC2 [Compound 50, 4-(3-(4-cyclopropyl-6-methoxypyrimidin-5-yl)-1-methyl-1,4,6,7-tetrahydro-5H-pyrazolo[4,3-c]pyridin-5-yl)-2-(1-methyl-4-(trifluoromethyl)-1H-imidazol-2-yl)thiazole] | > 100 | 20
CCc1cc(N2CCc3c(c(-c4c(OC)ncnc4C4CC4)nn3C)C2)ccc1-c1nc(C(F)(F)F)cn1C [Compound 57, 3-(4-cyclopropyl-6-methoxypyrimidin-5-yl)-5-(3-ethyl-4-(1-methyl-4-(trifluoromethyl)-1H-imidazol-2-yl)phenyl)-1-methyl-4,5,6,7-tetrahydro-1H-pyrazolo[4,3-c]pyridine] | > 100 | 87
COc1ncnc(C2CC2)c1-c1nn(C)c2c1CN(c1ccc(-c3c(C)noc3C)cn1)CC2 [Compound 23, 4-(6-(3-(4-cyclopropyl-6-methoxypyrimidin-5-yl)-1-methyl-1,4,6,7-tetrahydro-5H-pyrazolo[4,3-c]pyridin-5-yl)pyridin-3-yl)-3,5-dimethylisoxazole] | > 100 | 3
COc1ncnc(C2CC2)c1-c1nn(C)c2c1CN(c1ccc(-c3nc(C(F)(F)F)cn3C)nc1)CC2 [Compound 12, 3-(4-cyclopropyl-6-methoxypyrimidin-5-yl)-1-methyl-5-(6-(1-methyl-4-(trifluoromethyl)-1H-imidazol-2-yl)pyridin-3-yl)-4,5,6,7-tetrahydro-1H-pyrazolo[4,3-c]pyridine] | < 50 | 98
CCn1cc(C(F)(F)F)nc1-c1ccc(N2CCc3c(c(-c4c(OC)ncnc4C4CC4)nn3C)C2)cc1 [Compound 5, 3-(4-cyclopropyl-6-methoxypyrimidin-5-yl)-5-(4-(1-ethyl-4-(trifluoromethyl)-1H-imidazol-2-yl)phenyl)-1-methyl-4,5,6,7-tetrahydro-1H-pyrazolo[4,3-c]pyridine] | < 50 | 100
COc1ncnc(C2CC2)c1-c1nn(C)c2c1CN(c1ccc(-c3nc(C(F)(F)F)cn3C)cc1)CC2C (centres unmarked) [Compound 38, 3-(4-cyclopropyl-6-methoxypyrimidin-5-yl)-1,7-dimethyl-5-(4-(1-methyl-4-(trifluoromethyl)-1H-imidazol-2-yl)phenyl)-4,5,6,7-tetrahydro-1H-pyrazolo[4,3-c]pyridine] | < 50 | 99
COc1ncnc(C2CC2)c1-c1nn(C)c2c1CN(c1ncc(-c3nc(C(F)(F)F)cn3C)cn1)CC2 [Compound 59, 3-(4-cyclopropyl-6-methoxypyrimidin-5-yl)-1-methyl-5-(5-(1-methyl-4-(trifluoromethyl)-1H-imidazol-2-yl)pyrimidin-2-yl)-4,5,6,7-tetrahydro-1H-pyrazolo[4,3-c]pyridine] | 50 to 100 | 95
Cc1cnn(C(C)C)c1-c1nn(C)c2c1CN(c1ccc(-c3nc(C(F)(F)F)cn3C)nc1)CC2 [Compound 62, 3-(1-isopropyl-4-methyl-1H-pyrazol-5-yl)-1-methyl-5-(6-(1-methyl-4-(trifluoromethyl)-1H-imidazol-2-yl)pyridin-3-yl)-4,5,6,7-tetrahydro-1H-pyrazolo[4,3-c]pyridine] | 50 to 100 | 95
COc1ncnc(C2CC2)c1-c1nn(C2CCC2)c2c1CN(c1ccc(-c3nc(C(F)(F)F)cn3C)cn1)CC2 [Compound 35, 1-cyclobutyl-3-(4-cyclopropyl-6-methoxypyrimidin-5-yl)-5-(5-(1-methyl-4-(trifluoromethyl)-1H-imidazol-2-yl)pyridin-2-yl)-4,5,6,7-tetrahydro-1H-pyrazolo[4,3-c]pyridine] | > 100 | 76
COc1ncnc(C2CC2)c1-c1nn(C)c2c1CN(c1ccc(-c3nc(C(F)(F)F)cn3C)c(Cl)c1)CC2 [Compound 45, 5-(3-chloro-4-(1-methyl-4-(trifluoromethyl)-1H-imidazol-2-yl)phenyl)-3-(4-cyclopropyl-6-methoxypyrimidin-5-yl)-1-methyl-4,5,6,7-tetrahydro-1H-pyrazolo[4,3-c]pyridine] | < 50 | 98
COc1ncnc(C2CC2)c1-c1n[nH]c2c1CN(c1ccc(-c3nc(C(F)(F)F)cn3C)cn1)CC2 [Compound 54, 3-(4-cyclopropyl-6-methoxypyrimidin-5-yl)-5-(5-(1-methyl-4-(trifluoromethyl)-1H-imidazol-2-yl)pyridin-2-yl)-4,5,6,7-tetrahydro-1H-pyrazolo[4,3-c]pyridine] | > 100 | 91
COc1ncnc(C2CC2)c1-c1nn(C)c2c1CN(c1ccc(-c3nc(C(F)(F)F)cn3C)cn1)CC2 [Compound 13, 3-(4-cyclopropyl-6-methoxypyrimidin-5-yl)-1-methyl-5-(5-(1-methyl-4-(trifluoromethyl)-1H-imidazol-2-yl)pyridin-2-yl)-4,5,6,7-tetrahydro-1H-pyrazolo[4,3-c]pyridine] | < 50 | 98
COc1ncnc(C2CC2)c1-c1nn(C)c2c1CN(c1ccc(-c3nn(C)c4c3CNCC4)cc1)CC2 [Compound 56, 3-(4-cyclopropyl-6-methoxypyrimidin-5-yl)-1-methyl-5-(4-(1-methyl-4,5,6,7-tetrahydro-1H-pyrazolo[4,3-c]pyridin-3-yl)phenyl)-4,5,6,7-tetrahydro-1H-pyrazolo[4,3-c]pyridine] | > 100 | 5
COc1ncnc(C2CC2)c1-c1nn(C)c2c1CN(c1ccc(-c3nc(C(F)(F)F)cn3C)cc1)CC2(C)C [Compound 41, 3-(4-cyclopropyl-6-methoxypyrimidin-5-yl)-1,7,7-trimethyl-5-(4-(1-methyl-4-(trifluoromethyl)-1H-imidazol-2-yl)phenyl)-4,5,6,7-tetrahydro-1H-pyrazolo[4,3-c]pyridine] | < 50 | 100
COc1ncnc(C2CC2)c1-c1nn(C)c2c1CN(c1ccc(-c3nc(Cl)cn3C)cc1)CC2 [Compound 21, 5-(4-(4-chloro-1-methyl-1H-imidazol-2-yl)phenyl)-3-(4-cyclopropyl-6-methoxypyrimidin-5-yl)-1-methyl-4,5,6,7-tetrahydro-1H-pyrazolo[4,3-c]pyridine] | < 50 | 97
COc1ncnc(C2CC2)c1-c1nn(C)c2c1CN(c1ccc(-c3nc(C(F)(F)F)cn3C3CC3)cc1)CC2 [Compound 7, 5-(4-(1-cyclopropyl-4-(trifluoromethyl)-1H-imidazol-2-yl)phenyl)-3-(4-cyclopropyl-6-methoxypyrimidin-5-yl)-1-methyl-4,5,6,7-tetrahydro-1H-pyrazolo[4,3-c]pyridine] | < 50 | 100
CC(C)c1ncccc1-c1nn(C)c2c1CN(c1ccc(-c3nc(C(F)(F)F)cn3C)cc1)CC2 [Compound 3, 3-(2-isopropylpyridin-3-yl)-1-methyl-5-(4-(1-methyl-4-(trifluoromethyl)-1H-imidazol-2-yl)phenyl)-4,5,6,7-tetrahydro-1H-pyrazolo[4,3-c]pyridine] | < 50 | 99
COc1ncnc(C2CC2)c1-c1nn(C)c2c1CN(c1ccc(-c3nc(C(F)(F)F)cn3CCN(C)C)cc1)CC2 [Compound 10, 2-(2-(4-(3-(4-cyclopropyl-6-methoxypyrimidin-5-yl)-1-methyl-1,4,6,7-tetrahydro-5H-pyrazolo[4,3-c]pyridin-5-yl)phenyl)-4-(trifluoromethyl)-1H-imidazol-1-yl)-N,N-dimethylethan-1-amine] | > 100 | 88
COc1ncnc(C2CC2)c1-c1nn(C)c2c1CN(c1ccc(-c3nc(C(F)(F)F)cn3C(C)C)cc1)CC2 [Compound 6, 3-(4-cyclopropyl-6-methoxypyrimidin-5-yl)-5-(4-(1-isopropyl-4-(trifluoromethyl)-1H-imidazol-2-yl)phenyl)-1-methyl-4,5,6,7-tetrahydro-1H-pyrazolo[4,3-c]pyridine] | < 50 | 100
COc1ncnc(C2CC2)c1-c1nn(C2CC2)c2c1CN(c1ccc(-c3nc(C(F)(F)F)cn3C)cn1)CC2 [Compound 32, 1-cyclopropyl-3-(4-cyclopropyl-6-methoxypyrimidin-5-yl)-5-(5-(1-methyl-4-(trifluoromethyl)-1H-imidazol-2-yl)pyridin-2-yl)-4,5,6,7-tetrahydro-1H-pyrazolo[4,3-c]pyridine] | > 100 | 89
COc1ncnc(C2CC2)c1-c1nn(C)c2c1CN(c1ccc(-c3nc(C(F)(F)F)cn3C)c(F)c1)CC2 [Compound 44, 3-(4-cyclopropyl-6-methoxypyrimidin-5-yl)-5-(3-fluoro-4-(1-methyl-4-(trifluoromethyl)-1H-imidazol-2-yl)phenyl)-1-methyl-4,5,6,7-tetrahydro-1H-pyrazolo[4,3-c]pyridine] | < 50 | 100
COc1ncnc(C2CC2)c1-c1nn(C)c2c1CN(c1ccc(-n3nc(C(F)(F)F)cc3OC)cc1)CC2 [Compound 19, 3-(4-cyclopropyl-6-methoxypyrimidin-5-yl)-5-(4-(5-methoxy-3-(trifluoromethyl)-1H-pyrazol-1-yl)phenyl)-1-methyl-4,5,6,7-tetrahydro-1H-pyrazolo[4,3-c]pyridine] | < 50 | 99
COc1cccc(C2CC2)c1-c1nn(C)c2c1CN(c1ccc(-c3nc(C(F)(F)F)cn3C)cc1)CC2 [Compound 2, 3-(2-cyclopropyl-6-methoxyphenyl)-1-methyl-5-(4-(1-methyl-4-(trifluoromethyl)-1H-imidazol-2-yl)phenyl)-4,5,6,7-tetrahydro-1H-pyrazolo[4,3-c]pyridine] | < 50 | 
